Where two headings read alike, the source gives them in different places. One block for each compound: values may come before it.
Molecular target: alanyl aminopeptidases (APN) (Homo sapiens, UniProt P15144)
Experiment: Inhibition of alanyl aminopeptidase enzymatic activity, fluorogenic substrate (Ala)2-rhodamine 110
Format: biochemical
Protocol: The inhibition characteristics measured are referred to as IC-50 values or ID50 values (the latter marked with “*”) for said enzyme. The enzymatic activity was determined by means of the fluorogenic substrate/product (Ala)2-rhodamine 110.

[1] = Table 3, unstarred values, read-out: IC50APN
[2] = Table 4, starred values = ID50, read-out: ID50 APN (values marked with *)
[3] = Table 4, unstarred values, read-out: IC50APN
[4] = Table 9, unstarred values, read-out: IC50APN
[5] = Table 8, starred values = ID50, read-out: ID50 APN (values marked with *)
[6] = Table 3, starred values = ID50, read-out: ID50 APN (values marked with *)

Sequence of alanyl aminopeptidases (APN) (P15144 whole entry, species assumed): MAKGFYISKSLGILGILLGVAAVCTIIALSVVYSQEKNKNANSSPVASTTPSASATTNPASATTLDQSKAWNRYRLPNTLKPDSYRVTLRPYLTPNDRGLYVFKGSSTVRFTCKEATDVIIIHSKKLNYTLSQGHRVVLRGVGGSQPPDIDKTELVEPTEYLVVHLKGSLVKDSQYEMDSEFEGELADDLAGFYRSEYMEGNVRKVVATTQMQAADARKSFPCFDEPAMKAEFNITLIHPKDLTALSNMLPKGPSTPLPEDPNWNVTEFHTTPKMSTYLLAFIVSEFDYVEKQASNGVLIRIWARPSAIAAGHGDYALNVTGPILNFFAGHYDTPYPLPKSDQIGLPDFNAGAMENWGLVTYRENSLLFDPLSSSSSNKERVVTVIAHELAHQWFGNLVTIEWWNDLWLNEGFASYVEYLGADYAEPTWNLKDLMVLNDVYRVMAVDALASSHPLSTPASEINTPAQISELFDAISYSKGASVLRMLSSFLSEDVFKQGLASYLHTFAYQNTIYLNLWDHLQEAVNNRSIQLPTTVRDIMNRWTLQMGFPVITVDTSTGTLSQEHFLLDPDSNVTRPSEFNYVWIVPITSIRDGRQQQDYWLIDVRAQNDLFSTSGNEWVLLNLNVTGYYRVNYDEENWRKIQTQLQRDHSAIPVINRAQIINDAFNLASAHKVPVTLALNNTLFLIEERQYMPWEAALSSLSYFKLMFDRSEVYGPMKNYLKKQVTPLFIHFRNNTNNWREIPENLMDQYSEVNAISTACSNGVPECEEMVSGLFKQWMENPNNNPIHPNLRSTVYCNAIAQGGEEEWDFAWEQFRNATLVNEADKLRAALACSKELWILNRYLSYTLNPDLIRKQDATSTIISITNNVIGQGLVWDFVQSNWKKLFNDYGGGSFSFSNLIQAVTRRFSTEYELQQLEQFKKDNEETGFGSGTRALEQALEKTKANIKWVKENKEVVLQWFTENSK

SMILES: Cc1ccc(C(=O)N/C(=C\c2ccco2)C(=O)N2CCCN(C)CC2)cc1C [A10.007]
- IC50 (Table 10, read-out: IC50APN): 32.1 µM

SMILES: CCN(CC)c1ccc(/C=C(\NC(=O)c2ccccc2)C(=O)N/N=C/c2ccc(O)c([N+](=O)[O-])c2)cc1 [A4.011]
- IC50 [3]: 7.6 µM

SMILES: CCOC(=O)c1c(N)ncn1-c1ccccc1 [A3.020]
- IC50 [1]: 5.4 µM

SMILES: CCCOC(=O)c1cc(-c2ccc(/C=C3\C(=O)N(CCCO)C(=O)C(C#N)=C3C)o2)ccc1Cl [A12.022]
- IC50 (Table 12, read-out: IC50APN): 23.8 µM

SMILES: O=C(O)c1ccc(-n2c(/C=C/c3ccco3)nc3ccccc3c2=O)cc1 [A3.116]
- IC50 [1]: 21.2 µM

SMILES: Cc1ccc(Cn2c(SCCC(=O)O)nc3c2c(=O)n(C)c(=O)n3C)cc1 [A8.025]
- IC50 (Table 8, unstarred values, read-out: IC50APN): 28 µM

SMILES: COc1ccc(C2C(C(=O)c3ccccc3)C(c3ccccc3)C(C(=O)NCc3ccc(F)cc3)N2C(=O)NC2CCCCC2)cc1 (stereo not shown) [A8.041]
- IC50 [5]: 231 µM

SMILES: Nc1ccc2c(c1)C/C(=C\c1ccco1)C2=O [A3.008]
- IC50 [6]: 2.6 µM

SMILES: CN1C(=O)C(Cc2c[nH]c3ccccc23)NC1=S (stereo not shown) [A3.330]
- IC50 [6]: 146 µM

SMILES: O=C(N/N=C/c1cc(Br)ccc1OC(=O)c1ccc([N+](=O)[O-])cc1)/C(=C\c1ccc2c(c1)OCO2)NC(=O)c1ccccc1 [A4.146]
- IC50 [3]: 54.2 µM

SMILES: CC1=C(C#N)C(=O)N(CC(C)O)C(=O)/C1=C/c1ccc(-c2cccc(Cl)c2C)o1 (stereo not shown) [A13.014]
- IC50 (Table 13, read-out: IC50APN): 28.6 µM

SMILES: CCOC(=O)c1ncn(C(=O)OC)c1N [A8.001]
- IC50 [5]: 0.9 µM

SMILES: Cc1ccc(/C=N/NC(=O)COc2ccc(Cl)cc2)o1 [A4.038]
- IC50 [3]: 16 µM

SMILES: O=C(N/N=C/c1ccco1)c1ccc(NCc2ccccc2)cc1 [A3.346]
- IC50 [6]: 294 µM

SMILES: COC(=O)C(NC(=O)c1ccccc1)(Nc1sc2c(c1C#N)CCC(C(C)(C)C)C2)C(F)(F)F (stereo not shown) [A12.056]
- IC50 (Table 12, read-out: IC50APN): 43.6 µM

SMILES: O=C(N/N=C/C=C\c1ccco1)c1cccs1 [A3.282]
- IC50 [1]: 62.7 µM

SMILES: O=C(N/C=C1/C(=O)Nc2ccc(F)cc21)/C(=C/c1ccccc1)NC(=O)c1ccccc1 [A4.130]
- IC50 [3]: 44.2 µM

SMILES: O=C1C(Cc2c[nH]c3ccccc23)NC(=S)N1c1ccccc1 (stereo not shown) [A7.006]
- IC50 (Table 7, read-out: IC50APN): 12.4 µM

SMILES: Nc1nc2nc(-c3ccco3)cc(C(F)(F)F)n2n1 [A9.084]
- IC50 [4]: 32.1 µM

SMILES: COC(=O)c1cc(-c2ccc(/C=C3\C(=O)N(CCCO)C(=O)C(C#N)=C3C)o2)ccc1Cl [A3.069]
- IC50 [1]: 15.2 µM

Results, then the compound that gave them:

- IC50 [1]: 40.3 µM
SMILES: O=C(N/N=C/c1ccco1)c1ccn[nH]1 [A3.232]

- IC50 [2]: 222 µM
SMILES: COc1cccc(C(=O)NCC(=O)N/N=C/c2ccc([N+](=O)[O-])o2)c1 [A4.183]

- IC50 [1]: 23.4 µM
SMILES: Cc1cc(C)cc(OCC(=O)N/N=C/c2ccco2)c1 [A3.140]

- IC50 [1]: 19.5 µM
SMILES: CCCOc1ccccc1-c1cc(C(=O)N/N=C/c2ccco2)[nH]n1 [A3.100]

- IC50 [4]: 22.4 µM
SMILES: O=C(N/N=C/c1ccco1)c1ccc(=O)[nH]n1 [A9.058]

- IC50 [1]: 62.7 µM
SMILES: O=C(N/N=C/c1ccco1)c1cccc(Br)c1 [A3.283]

- IC50 [1]: 87.5 µM
SMILES: O=C(COc1ccccc1)N/N=C/c1ccco1 [A3.312]

- IC50 [4]: 48.4 µM
SMILES: CSCCC(Nc1ncnc2c1oc1ccccc12)C(=O)O (stereo not shown) [A9.097]

- IC50 [1]: 13.9 µM
SMILES: O=C(COc1ccc2ccccc2c1)N/N=C/c1ccco1 [A3.062]

- IC50 (Table 11, read-out: IC50APN): 422 µM
SMILES: C/C(=N\NC(=O)COc1ccc(C)cc1[NH+]([O-])O)c1ccco1 (stereo not shown) [A11.038]

- IC50 [3]: 152 µM
SMILES: C/C(=N\NC(=O)c1ccco1)c1ccc(C)o1 [A4.179]

- IC50 (Table 11, read-out: IC50APN): 5.8 µM
SMILES: O=C(N/N=C/c1cc(Cl)cc([N+](=O)[O-])c1O)c1ccccc1O [A11.039]

- IC50 [1]: 82.9 µM
SMILES: O=C(CCn1nnc2ccccc21)N/N=C/c1ccco1 [A3.310]

- IC50 [1]: 45.4 µM
SMILES: O=C(N/N=C/c1cccc([N+](=O)[O-])c1)c1ccco1 [A3.247]

- IC50 (Table 11, read-out: IC50APN): 49.5 µM
SMILES: O=C(C[N+](=O)[O-])c1cc2occc2[nH]1 [A11.030]

- IC50 [2]: 155 µM
SMILES: O=C(CNC(=O)c1cccc(F)c1)N/N=C/c1ccco1 [A4.180]

- IC50 [1]: 28.7 µM
SMILES: C(=C\c1ccco1)/c1nc2ccccc2[nH]1 [A3.176]

- IC50 [1]: 6.2 µM
SMILES: CC1CCN(C(=O)/C(=C\c2ccco2)NC(=O)c2ccc(Cl)cc2)CC1 [A3.022]

- IC50 [6]: 85.8 µM
SMILES: O=C(CCNC(=O)c1ccccc1Br)N/N=C/c1ccco1 [A3.311]

- IC50 (Table 9, starred values = ID50, read-out: ID50 APN (values marked with *)): 208 µM
SMILES: O=C(/C=C/c1ccco1)NCCCN1CCOCC1 [A9.127]

- IC50 [3]: 28 µM
SMILES: O=C(Cc1cccs1)N/N=C/C=C\c1ccco1 [A4.090]

- IC50 (Table 11, read-out: IC50APN): 31.1 µM
SMILES: O=C(CC1(O)CCCCC1)N/N=C/c1ccccc1[N+](=O)[O-] [A11.023]

- IC50 [1]: 62.4 µM
SMILES: O=C(Nc1ccccc1F)c1ccc([N+](=O)[O-])o1 [A3.281]

- IC50 [3]: 31 µM
SMILES: Cc1occc1C(=O)N/N=C/C=C\c1ccco1 [A4.098]

- IC50 [6]: 222 µM
SMILES: COc1cccc(C(=O)NCC(=O)N/N=C/c2ccc([N+](=O)[O-])o2)c1 [A3.340]

- IC50 (Table 11, read-out: IC50APN): 60 µM
SMILES: O=C(CNC(=O)c1ccccc1F)N/N=C/c1ccc([N+](=O)[O-])o1 [A11.032]

— patent US20070037752A1, “Novel alanyl-amino peptidase inhibitors for functionally influencing different cells and treating immunological, inflammatory, neuronal, and other diseases” (priority 2003, published 2007)
